Laboratory results taken from patent publication US20130288956A1, “COMBINED PHARMACEUTICAL COMPOSITION AS ANTIFUNGAL AGENT” (priority 2010, published 2013).

Key:
[1] = tested on: A. fumigatus strain IFM52108; test: A. fumigatus respiratory tract infection model; type: in vivo, mice
Procedure: (§1) Female DBA/2N mice (age 8 weeks, Charles River Laboratories Japan, Inc.) were subcutaneously administered 200 mg/kg of 5-fluorouracil 5 or 6 days prior to infection in order to put the mice into a compromised state.
(§2) A. fumigatus strain IFM52108 and A. flavus strain IFM50915 were used.
A liquid containing spores of A. fumigatus strain IFM52108 stored at −80° C. was applied to Potato Dextrose agar medium (PDA, Eiken Chemical Co., Ltd.) followed by static culturing for 5 to 7 days at 35° C. and suspending in sterile physiological saline containing 0.05% Tween 80.
The number of spores was counted using a hemocytometer, and the liquid was diluted with sterile physiological saline containing 0.05% Tween 80 to a concentration of 1.2×10^6 cells/mL to 2.5×10^6 cells/mL to obtain an inoculation fungus liquid.
(§3) 50 μl of inoculation fungus liquid were inoculated into the nasal cavities of 9-week-old mice at 0.3×10^5 cells/mouse to 1.25×10^5 cells/mouse under Ketalar anesthesia.
(§4) 0.1 mL to 0.2 mL of each drug solution (dissolved in sterile physiological saline or 5% glucose solution, or dissolved in sterile physiological saline or 5% glucose solution containing 6.5% dimethylsulfoxide and 3.5% Tween 80) was administered to the individual and combination dose groups either into the peritoneal cavity or into the stomach using a gastric cannula corresponding to the administration route of the drug for 3 to 4 days at the rate of 1 to 2 times per day starting 0.5 hours to 1 hour after inoculation of fungus.
(§5) There were 5 to 9 animals in each group.
(§6) Infection protection results were assessed on survival rate 14 days after infection.

C. glabrata = test: In vitro combination effects, checkerboard method by micro dilution (FIC index); type: cell-based, Candida glabrata; conditions: C. glabrata (5 strains); combination use with Test Compound 1
Procedure: (§7) A clinically isolated strain retained by the Medical Mycology Research Center of Chiba University (Code No. IFM) and a clinically isolated strain retained by the Life Science Research Center of Gifu University (Code No. E) were used as Candida and Aspergillus strains.
(§8) Fungus liquid obtained by static culturing at 35° C. for 48 hours in Sabouraud Dextrose liquid medium (SDB, Becton, Dickinson and Co.) was diluted with RPMI 1640 medium (Nissui Pharmaceutical Co., Ltd.) containing 0.165 M 3-(N-morpholino)propanesulfonic acid (MOPS) to prepare a fungus liquid having a fungus concentration of 1×10^3 cells/mL to 2×10^3 cells/mL.
(§9) Test Compound 1 (0.0005 μg/mL to 1.56 μg/mL) in the horizontal rows (12 wells) of a 96-well flat-bottom plate, and an antifungal agent in the form of ravuconazole (0.0015 μg/mL to 6.25 μg/mL), fluconazole (0.008 μg/mL to 32 μg/mL), voriconazole (0.0002 μg/mL to 8 μg/mL), micafungin (0.0005 μg/mL to 0.25 μg/mL), caspofungin (0.0005 μg/mL to 1 μg/mL) or amphotericin B (0.008 μg/mL to 8 μg/mL) in the vertical rows (8 wells) of the flat-bottom plate were prepared by diluting so as to blend together using RPMI 1640 medium containing 0.165 M MOPS to obtain a control group, a single Test Compound 1 group, each one of antifungal agents groups and combination groups of Test Compound 1+each one of antifungal agents.
(§10) The fungus liquids prepared in (1) were inoculated into the wells of 96-well flat-bottom plate containing 20 μL/well to 75 μL/well of the diluted test drug liquids prepared in (2) at 80 μL/well to 125 μL/well, followed by aerobically static culturing for 25 hours to 48 hours at 35° C.
(§11) Combination effects of Test Compound 1 and the antifungal agents were measured with the checkerboard method by micro dilution.
(§12) Interaction between both drugs was assessed by calculating the FIC index using the calculation formula indicated below.
(§13) The FIC index was calculated for each combination of antifungal agent concentrations that inhibited fungal growth, and the minimum value of the resulting FIC index was used as a combination FIC index.
(§14) A combination FIC index of 0.5 or less was evaluated as indicating synergistic action, that of 0.5 to 1 or less was evaluated as indicating additive action, and that of 1 to 4 or less was evaluated as indicating indifferent action.
(§15) FIC Index=(MIC value of drug A during combination use/MIC value of drug A when used alone)+(MIC value of drug B during combination use/MIC value of drug B when used alone) (Calculation Formula)

A. fumigatus = test: as above; type: cell-based, Aspergillus fumigatus; conditions: A. fumigatus (16 strains)
Procedure: as §7
(§16) An Aspergillus strain stored frozen at −80° C., or spores obtained by static culturing at 35° C. for 1 week in Potato Dextrose agar medium (PDA, Eiken Chemical Co., Ltd.) followed by scraping from the container with a metal loop, was diluted with RPMI 1640 medium containing 0.165 M MOPS to prepare a fungus liquid having a fungus concentration of 0.75×10^4 cells/mL to 1.33×10^4 cells/mL.
as §9, §10, §11, §12, §13, §14, §15

C. tropicalis = test: as above; type: cell-based, Candida tropicalis
Procedure: as §7, §8, §9, §10, §11, §12, §13, §14, §15

A. flavus = test: as above; type: cell-based, Aspergillus flavus; conditions: A. flavus (4 strains), Table 2
Procedure: as §7, §16, §9, §10, §11, §12, §13, §14, §15

C. albicans = test: as above; type: cell-based, Candida albicans
Procedure: as §7, §8, §9, §10, §11, §12, §13, §14, §15

[2] = tested on: A. flavus strain IFM50915; test: A. flavus respiratory tract infection model; type: in vivo, mice
Procedure: as §1, §2
A liquid containing spores of A. flavus strain IFM50915 stored at −80° C. was thawed, and the number of spores was counted using a hemocytometer followed by diluting with sterile physiological saline containing 0.05% Tween 80 to a concentration of 0.6×10^6 cells/mL to 1.0×10^6 cells/mL to obtain an inoculation fungus liquid.
as §3, §4, §5, §6

[3] = C. tropicalis (5 strains), combination use with Test Compound 1
[4] = C. albicans (9 strains), combination use with Test Compound 1

C[C@@H](c1nc(-c2ccc(C#N)cc2)cs1)[C@](O)(Cn1cncn1)c1ccc(F)cc1F [Ravuconazole, ravuconazole]
14-day survival rate ([1]; RVCZ 5 mg/kg): 0% | 14-day survival rate ([1]; RVCZ 10 mg/kg): 40% | Combination effects in mouse Aspergillus fumigatus infection model ([1]; combination with the test compound of the invention): synergistic combination effects | Ratio indicating Additive effect of combination use with Test Compound 1 (C. glabrata): 60% | Ratio indicating Antagonistic effect of combination use with Test Compound 1 (C. glabrata): 0% | Ratio indicating Indifferent effect of combination use with Test Compound 1 (C. glabrata): 0% | Ratio indicating Synergistic effect of combination use with Test Compound 1 (C. glabrata): 40% | Ratio indicating Additive effect of combination use with Test Compound 1 (A. fumigatus): 6% | Ratio indicating Antagonistic effect of combination use with Test Compound 1 (A. fumigatus): 0% | Ratio indicating Indifferent effect of combination use with Test Compound 1 (A. fumigatus): 94% | Ratio indicating Synergistic effect of combination use with Test Compound 1 (A. fumigatus): 0% | Ratio indicating Additive effect of combination use with Test Compound 1 (C. tropicalis; [3]): 0% | Ratio indicating Antagonistic effect of combination use with Test Compound 1 (C. tropicalis; [3]): 0% | Ratio indicating Indifferent effect of combination use with Test Compound 1 (C. tropicalis; [3]): 0% | Ratio indicating Synergistic effect of combination use with Test Compound 1 (C. tropicalis; [3]): 100% | Effect of combination use with Test Compound 1 (FIC index evaluation) (C. tropicalis; Candida tropicalis strains E83037, E83038, E83039, E83040 and E83041, resistant to azole antifungal agents): synergistic (A combination FIC index of 0.5 or less was evaluated as indicating synergistic action) | Ratio indicating Additive effect of combination use with Test Compound 1 (A. flavus): 25% | Ratio indicating Antagonistic effect of combination use with Test Compound 1 (A. flavus): 0% | Ratio indicating Indifferent effect of combination use with Test Compound 1 (A. flavus): 75% | Ratio indicating Synergistic effect of combination use with Test Compound 1 (A. flavus): 0% | Ratio indicating Additive effect of combination use with Test Compound 1 (C. albicans; [4]): 56% | Ratio indicating Antagonistic effect of combination use with Test Compound 1 (C. albicans; [4]): 0% | Ratio indicating Indifferent effect of combination use with Test Compound 1 (C. albicans; [4]): 0% | Ratio indicating Synergistic effect of combination use with Test Compound 1 (C. albicans; [4]): 44% | Effect of combination use with Test Compound 1 (FIC index evaluation) (C. albicans; Candida albicans IFM49738, resistant to azole antifungal agents): synergistic (A combination FIC index of 0.5 or less was evaluated as indicating synergistic action) | 14-day survival rate ([2]; RVCZ 2.5 mg/kg): 40% | 14-day survival rate ([2]; RVCZ 5 mg/kg): 80%
